From article doi:10.1101/2021.09.30.462449v1 (biorxiv, 2021)
Read-outs that look alike come from different tables or passages of the source.

How the values were obtained:
[1] = biological target: PL^pro (Severe acute respiratory syndrome coronavirus 2, UniProt P0DTD1); test: FRET peptide cleavage assay; type: biochemical
[2] = biological target: MELK (Homo sapiens, UniProt Q14680); test: ThermoFisher kinase profiling; type: biochemical; conditions: read-out: % inhibition at 1 μM
[3] = biological target: DYRK1B (Homo sapiens, UniProt Q9Y463); test: biochemical; conditions: read-out: % inhibition mean (Z'Lyte)
[4] = biological target: LTK (TYK1) (Homo sapiens, UniProt P29376); test: biochemical; conditions: read-out: % inhibition mean (Z'Lyte)
[5] = biological target: MLCK (MLCK2) (Homo sapiens, UniProt Q32MK0); test: biochemical; conditions: read-out: % inhibition mean (Lanthascreen)
[6] = biological target: PAK2 (PAK65) (Homo sapiens, UniProt Q13177); test: biochemical; conditions: read-out: % inhibition mean (Z'Lyte)
[7] = biological target: BLK (Homo sapiens, UniProt P51451); test: biochemical; conditions: read-out: % inhibition mean (Z'Lyte)
[8] = biological target: CSNK1E (CK1 epsilon) (Homo sapiens, UniProt P49674); test: biochemical; conditions: read-out: % inhibition mean (Z'Lyte)
[9] = biological target: KIT T670I (Homo sapiens, UniProt P10721, T670I); test: biochemical; conditions: read-out: % inhibition mean (Z'Lyte)
[10] = biological target: ACVR1B (ALK4) (Homo sapiens, UniProt P36896); test: biochemical; conditions: read-out: % inhibition mean (Z'Lyte)
[11] = biological target: LYN B (Homo sapiens, UniProt P07948); test: biochemical; conditions: read-out: % inhibition mean (Z'Lyte)
[12] = biological target: CSNK2A2 (CK2 alpha 2) (Homo sapiens, UniProt P19784); test: biochemical; conditions: read-out: % inhibition mean (Z'Lyte)
[13] = biological target: PDGFRB (PDGFR beta) (Homo sapiens, UniProt P09619); test: biochemical; conditions: read-out: % inhibition mean (Z'Lyte)
[14] = biological target: HIPK3 (YAK1) (Homo sapiens, UniProt Q9H422); test: biochemical; conditions: read-out: % inhibition mean (Z'Lyte)
[15] = biological target: CSNK1A1L (Homo sapiens, UniProt Q8N752); test: biochemical; conditions: read-out: % inhibition mean (Z'Lyte)
[16] = biological target: EPHA4 (Homo sapiens, UniProt P54764); test: biochemical; conditions: read-out: % inhibition mean (Z'Lyte)
[17] = biological target: FLT3 D835Y (Homo sapiens, UniProt P36888, D835Y); test: biochemical; conditions: read-out: % inhibition mean (Z'Lyte)
[18] = biological target: PRKCB1 (PKC beta I) (Homo sapiens, UniProt P05771); test: biochemical; conditions: read-out: % inhibition mean (Z'Lyte)
[19] = biological target: CAMK1D (CaMKI delta) (Homo sapiens, UniProt Q8IU85); test: biochemical; conditions: read-out: % inhibition mean (Z'Lyte)
[20] = biological target: SRPK1 (Homo sapiens, UniProt Q96SB4); test: biochemical; conditions: read-out: % inhibition mean (Z'Lyte)
[21] = biological target: EGFR (ErbB1) L861Q (Homo sapiens, UniProt P00533, L861Q); test: biochemical; conditions: read-out: % inhibition mean (Z'Lyte)
[22] = biological target: ROCK1 (Homo sapiens, UniProt Q13464); test: biochemical; conditions: read-out: % inhibition mean (Z'Lyte)
[23] = biological target: PKN1 (PRK1) (Homo sapiens, UniProt Q16512); test: biochemical; conditions: read-out: % inhibition mean (Z'Lyte)
[24] = biological target: RAF1 (cRAF) Y340D Y341D (Homo sapiens, UniProt P04049, Y340D/Y341D); test: biochemical; conditions: read-out: % inhibition mean (Z'Lyte)
[25] = biological target: T1, CAMK1 (CaMK1) (Homo sapiens, UniProt Q14012); test: Adapta universal kinase assay; type: biochemical
[26] = biological target: PDK1 (Homo sapiens, UniProt O15530); test: biochemical
[27] = biological target: STK33 (Homo sapiens, UniProt Q9BYT3); test: biochemical; conditions: read-out: % inhibition mean (Lanthascreen)
[28] = biological target: T1, CAMK1 (CaMK1); test: biochemical; conditions: read-out: % inhibition mean (Adapta)

T1 sequence (Q14012 whole entry): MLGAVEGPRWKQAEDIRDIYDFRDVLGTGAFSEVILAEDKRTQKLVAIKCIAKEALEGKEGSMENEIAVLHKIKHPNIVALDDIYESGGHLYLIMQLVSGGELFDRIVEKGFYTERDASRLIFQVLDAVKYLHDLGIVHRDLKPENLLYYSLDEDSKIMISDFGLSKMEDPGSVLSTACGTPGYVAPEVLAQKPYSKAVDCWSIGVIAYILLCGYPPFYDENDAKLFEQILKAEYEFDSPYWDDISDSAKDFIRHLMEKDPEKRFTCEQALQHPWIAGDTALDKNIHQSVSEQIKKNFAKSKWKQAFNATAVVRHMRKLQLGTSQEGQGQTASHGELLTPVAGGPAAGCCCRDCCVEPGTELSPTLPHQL
Sequence of PDK1 (O15530 whole entry): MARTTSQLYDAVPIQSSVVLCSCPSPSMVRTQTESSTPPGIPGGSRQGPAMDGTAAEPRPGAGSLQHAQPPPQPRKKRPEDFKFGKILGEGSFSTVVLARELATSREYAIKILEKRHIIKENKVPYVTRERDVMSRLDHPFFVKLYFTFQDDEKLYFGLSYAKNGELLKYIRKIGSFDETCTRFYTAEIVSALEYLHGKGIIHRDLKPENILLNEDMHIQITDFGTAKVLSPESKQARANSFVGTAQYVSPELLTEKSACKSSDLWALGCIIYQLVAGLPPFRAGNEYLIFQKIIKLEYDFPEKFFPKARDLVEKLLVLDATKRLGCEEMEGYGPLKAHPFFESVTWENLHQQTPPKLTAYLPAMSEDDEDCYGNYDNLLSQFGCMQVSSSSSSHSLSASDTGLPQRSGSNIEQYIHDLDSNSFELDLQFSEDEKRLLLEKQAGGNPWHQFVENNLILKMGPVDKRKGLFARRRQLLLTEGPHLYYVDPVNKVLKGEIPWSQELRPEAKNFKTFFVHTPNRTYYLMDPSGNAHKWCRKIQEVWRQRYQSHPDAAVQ
Sequence of KIT T670I (P10721 whole entry T670I): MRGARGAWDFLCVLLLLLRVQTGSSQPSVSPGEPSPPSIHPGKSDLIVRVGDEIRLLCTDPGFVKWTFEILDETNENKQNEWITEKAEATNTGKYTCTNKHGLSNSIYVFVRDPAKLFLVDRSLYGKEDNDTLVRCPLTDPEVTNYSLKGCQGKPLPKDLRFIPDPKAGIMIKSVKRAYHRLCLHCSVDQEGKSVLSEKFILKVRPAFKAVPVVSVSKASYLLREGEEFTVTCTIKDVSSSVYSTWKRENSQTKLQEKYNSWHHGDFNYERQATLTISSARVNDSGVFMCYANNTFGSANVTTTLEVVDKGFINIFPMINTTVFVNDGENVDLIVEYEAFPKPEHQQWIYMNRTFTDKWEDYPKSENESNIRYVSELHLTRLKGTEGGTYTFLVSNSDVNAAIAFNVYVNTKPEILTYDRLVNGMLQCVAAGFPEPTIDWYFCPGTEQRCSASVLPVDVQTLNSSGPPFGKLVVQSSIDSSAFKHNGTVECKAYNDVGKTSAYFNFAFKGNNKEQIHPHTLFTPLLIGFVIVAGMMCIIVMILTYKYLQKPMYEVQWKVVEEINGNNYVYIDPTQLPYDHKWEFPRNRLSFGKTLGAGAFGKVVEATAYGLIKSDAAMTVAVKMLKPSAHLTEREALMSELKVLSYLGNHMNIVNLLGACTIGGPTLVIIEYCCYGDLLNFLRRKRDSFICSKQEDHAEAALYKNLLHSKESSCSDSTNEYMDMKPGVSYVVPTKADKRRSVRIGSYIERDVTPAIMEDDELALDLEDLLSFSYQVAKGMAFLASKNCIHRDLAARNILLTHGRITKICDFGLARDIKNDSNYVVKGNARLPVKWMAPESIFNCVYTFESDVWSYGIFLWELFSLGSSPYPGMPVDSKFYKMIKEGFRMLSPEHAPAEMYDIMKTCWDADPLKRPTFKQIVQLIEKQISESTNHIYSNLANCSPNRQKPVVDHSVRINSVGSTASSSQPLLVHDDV
Sequence of MELK (Q14680 whole entry): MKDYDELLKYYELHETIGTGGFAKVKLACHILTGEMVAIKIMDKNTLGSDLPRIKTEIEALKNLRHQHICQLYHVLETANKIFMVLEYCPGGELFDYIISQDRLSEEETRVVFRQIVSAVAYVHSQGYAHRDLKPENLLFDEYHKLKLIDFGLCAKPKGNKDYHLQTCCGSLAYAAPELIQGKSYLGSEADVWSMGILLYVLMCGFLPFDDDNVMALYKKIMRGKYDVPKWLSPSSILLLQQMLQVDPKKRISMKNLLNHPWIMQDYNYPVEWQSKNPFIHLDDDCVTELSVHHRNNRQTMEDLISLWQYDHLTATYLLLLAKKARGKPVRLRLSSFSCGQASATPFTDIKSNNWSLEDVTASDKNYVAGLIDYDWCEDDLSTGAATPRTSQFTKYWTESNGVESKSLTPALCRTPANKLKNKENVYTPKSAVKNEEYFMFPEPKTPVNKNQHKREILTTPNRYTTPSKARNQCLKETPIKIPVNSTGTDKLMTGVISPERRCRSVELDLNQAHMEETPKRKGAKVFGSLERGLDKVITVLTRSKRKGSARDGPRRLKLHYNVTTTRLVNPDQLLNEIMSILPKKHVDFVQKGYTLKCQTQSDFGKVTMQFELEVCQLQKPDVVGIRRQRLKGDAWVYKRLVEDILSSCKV
Sequence of PDGFRB (PDGFR beta) (P09619 whole entry): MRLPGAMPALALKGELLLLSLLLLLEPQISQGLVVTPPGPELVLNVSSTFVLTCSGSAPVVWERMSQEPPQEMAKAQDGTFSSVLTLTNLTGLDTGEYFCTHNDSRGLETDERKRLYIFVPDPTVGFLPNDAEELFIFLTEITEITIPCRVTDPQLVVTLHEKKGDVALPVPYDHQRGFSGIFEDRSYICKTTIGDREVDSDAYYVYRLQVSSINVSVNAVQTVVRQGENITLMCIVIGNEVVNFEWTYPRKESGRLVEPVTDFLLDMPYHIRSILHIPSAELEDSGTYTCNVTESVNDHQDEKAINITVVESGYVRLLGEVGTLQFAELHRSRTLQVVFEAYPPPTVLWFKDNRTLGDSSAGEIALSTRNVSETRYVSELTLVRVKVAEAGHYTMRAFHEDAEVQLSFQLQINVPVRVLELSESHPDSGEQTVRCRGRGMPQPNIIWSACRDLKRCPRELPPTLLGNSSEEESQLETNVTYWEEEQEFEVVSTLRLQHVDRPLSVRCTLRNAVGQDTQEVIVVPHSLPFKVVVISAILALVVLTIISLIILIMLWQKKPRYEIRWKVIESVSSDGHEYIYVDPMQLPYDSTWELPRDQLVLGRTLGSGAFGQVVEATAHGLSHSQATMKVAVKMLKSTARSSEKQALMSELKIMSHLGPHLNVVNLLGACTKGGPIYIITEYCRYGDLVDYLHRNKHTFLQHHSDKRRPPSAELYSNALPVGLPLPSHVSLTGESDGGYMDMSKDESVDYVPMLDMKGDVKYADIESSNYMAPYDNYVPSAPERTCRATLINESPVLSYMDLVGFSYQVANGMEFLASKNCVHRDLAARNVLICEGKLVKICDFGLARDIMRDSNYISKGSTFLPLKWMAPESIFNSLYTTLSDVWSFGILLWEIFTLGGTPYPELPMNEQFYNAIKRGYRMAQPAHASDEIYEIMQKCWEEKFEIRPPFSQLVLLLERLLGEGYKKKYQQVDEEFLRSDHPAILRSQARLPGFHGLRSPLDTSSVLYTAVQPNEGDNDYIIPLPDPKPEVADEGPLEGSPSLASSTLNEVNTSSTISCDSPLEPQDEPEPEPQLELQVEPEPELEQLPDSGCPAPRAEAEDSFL
Sequence of PKN1 (PRK1) (Q16512 whole entry): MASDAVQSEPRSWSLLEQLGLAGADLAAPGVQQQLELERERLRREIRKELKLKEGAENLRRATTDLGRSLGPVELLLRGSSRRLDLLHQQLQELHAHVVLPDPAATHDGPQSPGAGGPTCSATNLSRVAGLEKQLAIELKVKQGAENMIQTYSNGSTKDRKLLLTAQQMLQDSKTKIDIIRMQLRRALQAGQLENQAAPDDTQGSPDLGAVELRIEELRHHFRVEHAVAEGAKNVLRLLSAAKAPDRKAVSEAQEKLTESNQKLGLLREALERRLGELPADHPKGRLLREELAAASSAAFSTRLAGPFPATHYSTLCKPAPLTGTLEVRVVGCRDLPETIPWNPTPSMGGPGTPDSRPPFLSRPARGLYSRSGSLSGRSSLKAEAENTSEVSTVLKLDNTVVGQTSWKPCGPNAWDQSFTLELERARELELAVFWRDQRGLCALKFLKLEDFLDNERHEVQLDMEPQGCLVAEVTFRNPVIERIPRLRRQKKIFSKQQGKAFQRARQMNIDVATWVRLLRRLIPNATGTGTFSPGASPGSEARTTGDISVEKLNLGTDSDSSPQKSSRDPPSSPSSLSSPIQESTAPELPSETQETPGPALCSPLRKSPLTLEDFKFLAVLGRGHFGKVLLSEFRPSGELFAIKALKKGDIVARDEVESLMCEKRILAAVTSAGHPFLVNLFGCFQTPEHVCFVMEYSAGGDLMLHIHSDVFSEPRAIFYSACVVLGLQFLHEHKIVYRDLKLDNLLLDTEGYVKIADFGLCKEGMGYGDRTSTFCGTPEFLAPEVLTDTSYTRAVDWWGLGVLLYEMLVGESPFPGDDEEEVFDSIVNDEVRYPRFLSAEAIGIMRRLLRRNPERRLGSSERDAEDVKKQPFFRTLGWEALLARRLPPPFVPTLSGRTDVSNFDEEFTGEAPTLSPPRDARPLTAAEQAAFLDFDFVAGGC
Sequence of CSNK2A2 (CK2 alpha 2) (P19784 whole entry): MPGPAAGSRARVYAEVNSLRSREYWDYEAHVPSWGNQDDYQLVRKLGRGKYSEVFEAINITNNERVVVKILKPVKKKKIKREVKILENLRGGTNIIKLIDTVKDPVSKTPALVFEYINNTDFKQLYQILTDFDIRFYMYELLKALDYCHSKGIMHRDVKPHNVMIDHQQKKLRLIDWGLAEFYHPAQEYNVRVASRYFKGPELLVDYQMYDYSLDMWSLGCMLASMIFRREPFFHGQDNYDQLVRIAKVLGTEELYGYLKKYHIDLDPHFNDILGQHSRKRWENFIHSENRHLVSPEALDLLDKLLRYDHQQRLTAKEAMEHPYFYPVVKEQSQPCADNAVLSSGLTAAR

## COc1ccc2nc3cc(Cl)ccc3c(Nc3cc(CN4CCCC4)c(O)c(CN4CCCC4)c3)c2n1 [Pyronaridine, 4-[(7-Chloro-2-methoxybenzo[b][1,5]naphthyridin-10-yl)amino]-2,6-bis(1-pyrrolidinylmethyl)phenol phosphate (1:4)]
[1]
  IC50: 1.86 ± 0.58 µM
[2]
  inhibition at 1 µM: 31%
[3]
  inhibition at 1 µM: 1%
[4]
  inhibition at 1 µM: -1%
[5]
  inhibition at 1 µM: -6%
[6]
  inhibition at 1 µM: -1%
[7]
  inhibition at 1 µM: 3%
[8]
  inhibition at 1 µM: 1%
[9]
  inhibition at 1 µM: 1%
[10]
  inhibition at 1 µM: -1%
[11]
  inhibition at 1 µM: -2%
[12]
  inhibition at 1 µM: 5%
[13]
  inhibition at 1 µM: 0%
[14]
  inhibition at 1 µM: -2%
[15]
  inhibition at 1 µM: 3%
[16]
  inhibition at 1 µM: -2%
[17]
  inhibition at 1 µM: 2%
[18]
  inhibition at 1 µM: 2%
[19]
  inhibition at 1 µM: -26%
[20]
  inhibition at 1 µM: 1%
[21]
  inhibition at 1 µM: -4%
[22]
  inhibition at 1 µM: 2%
[23]
  inhibition at 1 µM: 1%
[24]
  inhibition at 1 µM: -9%
[25]
  IC50: 2.4 µM
[26]; read-out: % inhibition mean (Z'Lyte)
  inhibition at 1 µM: 0%
[26]; read-out: % inhibition mean (Z'Lyte), direct format
  inhibition at 1 µM: 7%
[27]
  inhibition at 1 µM: 11%
[28]
  inhibition at 1 µM: 35%
